Measurements: US6048854A, “2,3-diaminopropionic acid derivative” (Sumitomo Pharmaceuticals Company, Limited, priority 1993, dated 2000)
Where two headings read alike, the source gives them in different places.

Assays:
[1] = tested on: platelet aggregation; experiment: Platelet aggregation inhibitory activity (ex vivo) after oral administration; type: in vivo; settings: Cavia porcellus, guinea pig, oral 0.1 mg/kg, ADP 10 μg/ml
Procedure: A canula for collecting blood was inserted into the left common carotid artery of a guinea pig which was anesthetized with pentobarbital (30 mg/kg, i.p.). The blood (1 ml) was taken with a syringe containing 1/10 volume of 3.8% sodium citrate (Kettin-citrate, manufactured by Kokusai Shiyaku Ltd.), and the platelet aggregation ability thereof was measured (as a value before administration). Then, a test compound was orally administered to the guinea pig at a dose of 0.1 mg/kg in a volume of 5 ml/kg, and the blood was collected periodically likewise at 0.5, 1, 2, 4 and 6 hours after the administration of the test compound, and the platelet aggregation ability thereof was measured.
The determination of the platelet aggregation ability was carried out by turbidimetry using a Hematracer (Niko Bioscience) as follows. That is, the blood was centrifuged at 4500 rpm at room temperature for 10 seconds, and the supernatant was considered as platelet rich plasma (PRP), and the precipitate was centrifuged at 11000 rpm for two minutes and its supernatant was considered as platelet poor plasma (PPP), and the photo-transmittance of the PRP and the PPP was adjusted to 0%, and 100%, respectively. A cubet containing PRP (200 μl) was inserted to a measurement well, and […] at 1000 rpm at 37° C. for two minutes, and thereto was added a platelet aggregator; ADP (adenosine diphosphate, Sigma Ltd., 20 μl, final concentration; 10 μg/ml), and the maximum aggregation rate was measured. From the maximum aggregation rate before the administration of the test compound (MAR control) and the maximum aggregation rate after the administration of the test compound (MAR sample), the platelet aggregation inhibitory rate of each test compound was estimated according to the following equation.
Inhibitory rate (%)=(1-(MAR sample/MAR control))×100
The periodical change in the platelet aggregation inhibitory rate of each test compound at a dose of 0.1 mg/kg of oral administration is shown in Table 5.

[2] = tested on: human vitronectin; experiment: Binding assay of platelet to adhesive protein: vitronectin (receptor binding inhibition); settings: Table 4; fixed activated human platelets, 37° C., 60 minutes; read-out: receptor binding inhibition (IC50), Bitronectin
Procedure: (§1) The blood was taken out from the elbow vein of a normal volunteer, and mixed with 1/10 volume of 3.8% sodium citrate. The blood was centrifuged at 1,000 rpm (150 g) for 10 minutes, and the supernatant is collected as a platelet rich plasma (PRP). The precipitates are centrifuged at 11,000 rpm (6000 g) for two minutes, and the supernatant is collected as a platelet poor plasma (PPP). To PRP is added prostaglandin I2 (PGl2) at a final concentration of 50 ng/ml, and the mixture was centrifuged at 11000 rpm for two minutes to give human platelet. The platelet was activated by washing with 3.8 mM HEPES-buffer (pH 7.4, Tyrode-HEPES buffer) containing 0.14 M sodium chloride, 2.7 mM potassium chloride, 3.7 mM sodium dihydrogen phosphate, 0.98 mM magnesium chloride, 1 mg/ml glucose, 50 ng/ml PGl2 and 0.35% bovine serum albumin (BSA), adding thereto 5 μM epinephrine, and 30 μM ADP (adenosine diphosphate), followed by being allowed to stand at room temperature for five minutes. To the activated platelet was added 0.05% p-formaldehyde, and the mixture was allowed to stand at room temperature for 30 minutes to give the fixed platelet, which was suspended in Tyrode-HEPES buffer to give a platelet suspension of a concentration of 2×10^8 ml^-1.
(§2) Human fibrinogen from which fibronectin was previously removed by passing through gelatin-cepharose, human fibronectin or human vitronectin was diluted with 0.1 M aqueous sodium hydrogen carbonate solution to a concentration of 5 μg/ml, and the protein solution is put into a 96-well microplate at a volume of 200 μl/well. The microplate was allowed to stand at 4° C. overnight. The plate was washed with phosphate buffered saline (PBS), and subjected to blocking with 3% BSA at 37° C. for one hour. To the plate were added a platelet suspension (final concentration, 10^8 ml^-1) and a test compound of various concentrations (total volume, 200 μl/well), and the plate was incubated at 37° C. for 60 minutes. The plate was treated with 1000-fold diluted enzyme (HRP)-labelled anti-mouse IgG polyclonal antibody at 37° C. for 60 minutes, and thereto was added HRP chromogenic substrate (0.1 M phosphate buffer containing 0.4 mg/ml O-phenylenediamine,0.01% hydrogen peroxide, 0.1 M citric acid, pH 5), and reacted at room temperature for 15 minutes. The reaction was terminated by adding thereto 4.5 M sulfuric acid at a volume of 25 μl/well, and the absorbance at 490 nm was measured.

[3] = biological target: T1, human fibrinogen (Homo sapiens, UniProt P05106+P08514); experiment: Binding assay of platelet to adhesive protein: fibrinogen (receptor binding inhibition); settings: Table 4; fixed activated human platelets, 37° C., 60 minutes
T1 construct: centrifuged at 11000 rpm for two minutes to give human platelet; from tissue
Procedure: as §1, §2

[4] = tested on: human fibronectin; experiment: Binding assay of platelet to adhesive protein: fibronectin (receptor binding inhibition); settings: Table 4; fixed activated human platelets, 37° C., 60 minutes
Procedure: as §1, §2

[5] = tested on: platelet aggregation; experiment: Platelet aggregation inhibitory activity (ADP-induced, human platelet rich plasma); type: cell-based; settings: Homo sapiens, Table 3, same manner as Example 17
How it was run: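 Citrated human platelet-rich plasma […] was stirred with test compound for 2 min at 37 °C. Aggregation was then induced with ADP at 3 μg/ml final and monitored by nephelometry. IC50 is the concentration giving 50% inhibition of aggregation.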

[6] = 0.5 hr, read-out: platelet aggregation inhibitory rate (%), 0.5 hr
[7] = 1 hr, read-out: platelet aggregation inhibitory rate (%), 1 hr
[8] = 2 hrs, read-out: platelet aggregation inhibitory rate (%), 2 hrs
[9] = 4 hrs, read-out: platelet aggregation inhibitory rate (%), 4 hrs
[10] = 6 hrs, read-out: platelet aggregation inhibitory rate (%), 6 hrs

T1 sequence (P08514 32-887 limits assumed): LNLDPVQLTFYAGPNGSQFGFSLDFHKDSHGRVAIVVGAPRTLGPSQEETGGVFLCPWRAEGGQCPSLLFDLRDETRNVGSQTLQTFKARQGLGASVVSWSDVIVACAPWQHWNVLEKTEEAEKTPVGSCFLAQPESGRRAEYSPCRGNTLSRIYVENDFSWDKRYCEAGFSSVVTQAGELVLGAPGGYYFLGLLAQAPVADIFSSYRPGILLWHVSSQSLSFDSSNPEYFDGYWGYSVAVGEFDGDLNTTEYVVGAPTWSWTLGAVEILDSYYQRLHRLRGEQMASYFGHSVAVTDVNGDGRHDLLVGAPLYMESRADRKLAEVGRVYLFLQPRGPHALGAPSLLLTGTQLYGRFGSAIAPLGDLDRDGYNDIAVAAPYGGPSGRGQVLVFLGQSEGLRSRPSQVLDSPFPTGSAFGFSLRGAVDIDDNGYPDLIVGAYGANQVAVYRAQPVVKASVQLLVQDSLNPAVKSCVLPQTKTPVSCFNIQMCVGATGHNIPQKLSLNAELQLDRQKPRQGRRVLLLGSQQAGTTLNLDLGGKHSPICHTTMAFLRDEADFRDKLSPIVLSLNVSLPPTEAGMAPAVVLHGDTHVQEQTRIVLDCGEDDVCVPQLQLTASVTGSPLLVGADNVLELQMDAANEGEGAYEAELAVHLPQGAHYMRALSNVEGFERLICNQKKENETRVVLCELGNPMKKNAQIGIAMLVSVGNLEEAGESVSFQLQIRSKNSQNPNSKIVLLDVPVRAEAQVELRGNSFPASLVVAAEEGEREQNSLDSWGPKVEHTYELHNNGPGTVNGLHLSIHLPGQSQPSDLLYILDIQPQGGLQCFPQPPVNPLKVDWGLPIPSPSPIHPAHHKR
T1 sequence (P08514 891-1039 limits assumed): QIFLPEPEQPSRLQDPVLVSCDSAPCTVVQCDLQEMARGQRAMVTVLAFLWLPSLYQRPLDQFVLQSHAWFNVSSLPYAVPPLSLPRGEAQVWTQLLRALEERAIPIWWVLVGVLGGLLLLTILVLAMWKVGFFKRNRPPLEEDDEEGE
T1 sequence (P05106 27-788): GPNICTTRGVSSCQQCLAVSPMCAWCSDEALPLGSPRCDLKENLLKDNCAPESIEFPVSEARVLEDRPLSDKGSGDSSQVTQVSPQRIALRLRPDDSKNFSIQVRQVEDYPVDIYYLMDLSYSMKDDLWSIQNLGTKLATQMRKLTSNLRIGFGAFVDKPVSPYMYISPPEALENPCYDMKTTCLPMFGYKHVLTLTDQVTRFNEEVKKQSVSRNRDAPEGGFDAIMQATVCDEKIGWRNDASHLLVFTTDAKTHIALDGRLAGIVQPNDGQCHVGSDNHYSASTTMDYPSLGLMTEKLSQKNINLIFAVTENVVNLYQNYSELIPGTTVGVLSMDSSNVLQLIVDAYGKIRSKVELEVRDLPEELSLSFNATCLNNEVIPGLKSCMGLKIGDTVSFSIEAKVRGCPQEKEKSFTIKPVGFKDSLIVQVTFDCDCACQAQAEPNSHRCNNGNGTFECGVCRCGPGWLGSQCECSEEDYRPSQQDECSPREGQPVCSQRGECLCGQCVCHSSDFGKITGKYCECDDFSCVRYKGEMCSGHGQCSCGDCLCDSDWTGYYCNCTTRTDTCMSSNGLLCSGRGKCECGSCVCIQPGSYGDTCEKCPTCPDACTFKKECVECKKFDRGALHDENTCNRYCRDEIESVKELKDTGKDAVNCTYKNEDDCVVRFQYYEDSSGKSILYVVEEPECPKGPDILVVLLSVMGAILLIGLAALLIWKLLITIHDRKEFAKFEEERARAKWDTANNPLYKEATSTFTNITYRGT

Row | Compound | inhibition in vivo at 0.1 mg/kg [1, 6] [%] | inhibition in vivo at 0.1 mg/kg [1, 7] [%] | inhibition in vivo at 0.1 mg/kg [1, 8] [%] | inhibition in vivo at 0.1 mg/kg [1, 9] [%] | inhibition in vivo at 0.1 mg/kg [1, 10] [%] | IC50 [2] [nM] | IC50 [3] [nM] | IC50 [4] [nM] | IC50 [5] [nM]
1 | Cc1ccc(S(=O)(=O)N[C@@H](CNC(=O)CCNC(=O)c2ccc(C(=N)N)cc2)C(=O)O)cc1 [Example 76, (2S)-3-(3-(4-amidinobenzoylamino)propanoylamino)-2-(4-methyl)benzenesulfonylaminopropanoic Acid] | 100 | 100 | 100 | 100 | 100 | 540 | 6.3 | 510 | 17
2 | N=C(N)c1ccc(C(=O)NCCC(=O)NC[C@H](NS(=O)(=O)c2ccccc2[N+](=O)[O-])C(=O)O)cc1 [Example 77, (2S)-3-(3-(4-amidinobenzoylamino)propanoylamino)-2-(2-nitro)benzenesulfonylaminopropanoic Acid] | 100 | 100 | 100 | 100 | 97 | 670 | 6.7 | 54 | 65
3 | N=C(N)c1ccc(C(=O)NCCC(=O)NC[C@H](NS(=O)(=O)c2ccc(F)cc2)C(=O)O)cc1 [Example 78, (2S)-3-(3-(4-amidinobenzoylamino)propanoylamino)-2-(4-fluoro)benzenesulfonylaminopropanoic Acid] | 99 | 100 | 100 | 100 | 100 | 160 | 9 | 25 | 16
4 | CCc1ccc(S(=O)(=O)N[C@@H](CNC(=O)CCNC(=O)c2ccc(C(=N)N)cc2)C(=O)O)cc1 [Example 80, (2S)-3-(3-(4-amidinobenzoylamino)propanoylamino)-2-(4-ethyl)benzenesulfonylaminopropanoic Acid] | 100 | 100 | 75 | 79 | 74 | 4900 | 10 | 390 | 17
5 | N=C(N)c1ccc(OCCCC(=O)NC[C@H](NS(=O)(=O)c2ccccc2C(F)(F)F)C(=O)O)cc1 [Example 82, (2S)-3-(4-(4-amidinophenoxy)butanoylamino)-2-(2-trifluoromethyl)benzenesulfonylaminopropanoic Acid] | 81 | 66 | 54 | 52 | 51 | 270 | 1.2 | 19 | 31
6 | CCc1ccc(S(=O)(=O)N[C@@H](CNC(=O)CCCOc2ccc(C(=N)N)cc2)C(=O)O)cc1 [Example 83, (2S)-3-(4-(4-amidinophenoxy)butanoylamino)-2-(4-ethyl)benzenesulfonylaminopropanoic Acid] | 50 | 47 | 48 | 32 | 41 | 7800 | 22 | 770 | 30
7 | N=C(N)c1ccc(OCCCCC(=O)NC[C@H](NS(=O)(=O)c2ccccc2[N+](=O)[O-])C(=O)O)cc1 [Example 85, (2S)-3-(5-(4-amidinophenoxy)pentanoylamino)-2-(2-nitro)benzenesulfonylaminopropanoic Acid] | 36 | 41 | 44 | 31 | 17 | 270 | 4.8 | 20 | 26
8 | Cc1cc(C)c(S(=O)(=O)N[C@@H](CNC(=O)CCCCOc2ccc(C(=N)N)cc2)C(=O)O)c(C)c1 [Example 86, (2S)-3-(5-(4-amidinophenoxy)pentanoylamino)-2-(2,4,6-trimethyl)benzenesulfonylaminopropanoic Acid] | 46 | 0 | 0 | 0 | 0 | 500 | 1.1 | 120 | 56
9 | Cc1cc(C)c(S(=O)(=O)N[C@@H](CNC(=O)CCCCc2ccc(C(=N)N)cc2)C(=O)O)c(C)c1 [Example 87, (2S)-3-(5-(4-amidinophenyl)pentanoylamino)-2-(2,4,6-trimethyl)benzenesulfonylaminopropanoic Acid] | 100 | 100 | 100 | 100 | 80 | 2700 | 12 | 210 | 25
10 | N=C(N)c1ccc(CCCCCC(=O)NC[C@H](NS(=O)(=O)c2ccccc2)C(=O)O)cc1 [Example 91, (2S)-3-(6-(4-amidinophenyl)hexanoylamino)-2-benzenesulfonylaminopropanoic Acid] | 51 | 41 | 31 | 14 | 39 | 1300 | 4.7 | 50 | 23
11 | Cc1cc(C)c(S(=O)(=O)N[C@@H](CNC(=O)CCCCCc2ccc(C(=N)N)cc2)C(=O)O)c(C)c1 [Example 92, (2S)-3-(6-(4-amidinophenyl)hexanoylamino)-2-(2,4,6-trimethyl)benzenesulfonylaminopropanoic Acid] | 68 | 34 | 24 | 47 | 0 | 500 | 3.9 | 24 | 37
